Patent EP3463364B1, “PYRAZINE DERIVATIVES FOR USE IN THE TREATMENT OF DISEASES ASSOCIATED WITH CELL CYCLE DYSREGULATION” (University of Patras, priority 2016, dated 2017)

Columns and labels:
Geminin = biological target: T1, Geminin (Homo sapiens, UniProt O75496); assay: Intracellular localization of exogenous Geminin-GFP in co-transfected MCF7 cells (fluorescence microscopy); format: cell-based; settings: 100µM, 24-hour incubation
T1 construct: the full length human Geminin ortholog was used; expressed in transfected cells; host or cells: MCF7
T1 sequence (O75496 1-209): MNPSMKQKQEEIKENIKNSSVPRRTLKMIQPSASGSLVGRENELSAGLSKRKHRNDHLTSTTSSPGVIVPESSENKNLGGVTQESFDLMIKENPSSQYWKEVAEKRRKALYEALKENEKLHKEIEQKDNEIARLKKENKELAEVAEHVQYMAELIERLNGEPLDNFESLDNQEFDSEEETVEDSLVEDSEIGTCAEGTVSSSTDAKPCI
Text: A cellular assay was developed and applied using epithelial cells of breast adenocarcinoma (MCF7), for the purpose of the ex vivo study of the mechanism by which the inhibitory effect of the synthetic chemical compound affects the functional significance of the Geminin-Cdtl protein interaction.
Therefore, in order to determine the mechanism of action of the synthetic chemical compound AF-615/30368009, its effect on the Geminin nucleo-cytoplasmic translocation was studied ex vivo.
For the purposes of this experiment, the full length human Geminin ortholog was used as well as the protein Cdt1^DEL which corresponds to the human ortholog which lacks the amino acid residues 170-190. […]
For the implementation of the cellular assay, an appropriate number of cells were seeded onto glass coverslips and cells were allowed to culture in order to adhere. […] Then, the coverslips were washed with 1x PBS buffer (2 times), mounted on microscope slides using mounting medium containing the dye DAPI (that stains only nuclei) and were observed under a fluorescence microscope. […]
The experimental design included the transient co-transfection of MCF7 cancer cells with Geminin-GFP & dhcRed and Geminin-GFP & Cdt1^DEL-dhcRed. […] The intracellular localization of Geminin was detected by the autofluorescence of the GFP molecule. […]

[1] = tested on: Mouse Embryonic Fibroblasts, MEFs; assay: Cell cycle progression by propidium iodide flow cytometry, normal (primary) cells; format: cell-based; settings: 100 µM, 23hrs, compared to DMSO control (Fig. 5D vs 5C)
Experimental: Since the proteins Geminin and Cdtl are key regulators of the cell cycle, the effect of the synthetic compound on the development of the cancer cell and normal cell cycle was studied. Staining of the genetic material of the cells was performed with propidium iodide and the technique of flow cytometry was applied for their separation, based on the amount of genetic material.
MCF7 cells were used as cancer cells, whereas primary cells and particularly embryonic mouse fibroblasts (Mouse Embryonic Fibroblasts, MEFs) were used as normal cells. The cells were incubated with the synthetic chemical compound AF-615/30368009 at a concentration of 100 µM and cultured for 23hrs in 100-mm dishes, to 80% confluency. Cells which had been incubated with only DMSO were used as a negative control sample. The next day of the incubation, cells were harvested using trypsin. […] The experiments were conducted using a Becton Dickinson flow cytometer and the data were analyzed by the WinMDi software version 2.8. […]
The graphs shown in Fig. 5 are representative of at least two independent experiments. The x axis represents the intensity of the fluorescence of propidium iodide and proportionally the amount of DNA content of the cells, while the y-axis corresponds to the number of events for each phase of the cell cycle.

intracellular localization of Geminin (Geminin; MCF7, co-transfection with Geminin-GFP & Cdt1^DEL-dhcRed (Fig. 4)): no detectable change
percentage of cells with nuclear localization of Geminin (Geminin; MCF7, co-transfection with Geminin-GFP & dhcRed (Fig. 4)): statistically significant increase
SMILES: O=C(NNC(=S)N1CCOCC1)c1cnccn1 [AF-615/30368009, N'-(morpholine-4-carbothioyl)pyrazine-2-carbohydrazide]
percentage of cells in G2/M phase [1]: mild reduction
percentage of cells in phase G0/G1 and S [1]: no significant change
